Measured values published in US20250051300A1, “GRAM-NEGATIVE SPECIFIC ANTIBIOTICS SPARING EFFECT ON GUT MICROBIOME” (THE BOARD OF TRUSTEES OF THE UNIVERSITY OF ILLINOIS, priority 2021, published 2025).

Test: Pharmacokinetic assessment in mice (serum, LC-MS/MS)
Format: in vivo, C57BL/6 mice
Details: for Cmax / half-life / AUC: female, 200 mg/kg single dose; for Cmax / half-life: C57BL/6, mouse, serum; for AUC: C57BL/6, mouse serum
Method: C57BL/6 mice were treated with lolamcyin at a single dose of 200 mg/kg via IP injection (formulated in 50% DMSO and 50% PEG400) or oral gavage (formulated in 20% DMSO, 30% water, and 50% PEG400) with three mice per time point (0, 15, 30, 45, 60, 120, 240, 480, 960, and 1,440 min). Mice were then sacrificed and serum concentrations of lolamycin were determined by liquid chromatography-tandem mass spectrometry (LC-MS/MS). Oral bioavailability was calculated by comparing the concentration of lolamycin in mouse serum levels resulting from these two administration routes.
Pharmacokinetic Assessment of compound 2 and lolamycin. The protocol was approved by the Institutional Animal Care and Use Committee (IACUC) at the University of Illinois at Urbana-Champaign. In these studies, 10- to 12-week-old female C57BL/6 mice purchased from Charles River Laboratories were used. Mice were randomly chosen and divided into subsequent groups. No additional randomization was used to allocate the experimental groups; blinding was not performed for subsequent quantitation. First, the pharmacokinetic assessment via intraperitoneal injection was determined. Compound 2 and lolamycin were formulated in 50% DMSO and 50% PEG400. Mice were treated with compound 2 (200 mg/kg) or lolamycin (200 mg/kg) via intraperitoneal injection, with three mice per time point (0, 15, 30, 45, 60, 120, 240, 480, 960, and 1,440 min). At the specified time points, mice were killed, blood was collected and centrifuged, and the serum was frozen at −80° C. until analysis. The proteins in a 10-μL aliquot of serum were precipitated by the addition of 50 μL methanol with the addition of 10 μL internal standard. The sample was then vortexed and centrifuged to remove the proteins. Supernatants were analyzed with the QTRAP 5500 LC/MS/MS system (Sciex) in the Metabolomics Laboratory of the Roy J. Carver Biotechnology Center, University of Illinois at Urbana-Champaign.
Next, the pharmacokinetic assessment via oral gavage was determined. Lolamycin was formulated in 20% DMSO, 30% water, and 50% PEG400. Mice were treated with lolamycin (200 mg/kg) via oral gavage, with three mice per time point (0, 15, 30, 45, 60, 120, 240, 480, 960, and 1,440 min). At the specified time points, mice were killed, blood was collected and centrifuged, and the serum was frozen at −80° C. until analysis similar to before. Software Analyst 1.6.2 was used for data acquisition and analysis. The 1200 Series HPLC system (Agilent Technologies) includes a degasser, an autosampler and a binary pump. The liquid chromatography separation was performed on an Agilent Zorbax SB-Aq column (4.6×50 mm; 5 μm) with mobile phase A (0.1% formic acid in water) and mobile phase B (0.1% formic acid in acetonitrile). The autosampler was set at 10° C. The injection volume was 5 μL. Mass spectra were acquired using electrospray ionization with a voltage of 5,500 V. The source temperature was 450° C. The curtain gas, ion source gas 1 and ion source gas 2 were […], respectively. Multiple reaction monitoring was used for quantitation with external standard. The limit of quantitation of (S/N=10) was 1 nM. Pharmacokinetic parameters were calculated with a one-compartment model using a nonlinear regression program (Phoenix WinNonlin Version 8.1; Certara USA).

Cc1cc(-c2c[nH]nc2-c2cccc(OCc3cccc(C#N)c3)c2)cc(C)n1 [Compound 12, 3-((3-(4-(2,6-dimethylpyridin-4-yl)-1H-pyrazol-3-yl)phenoxy)methyl)benzonitrile]
Cmax (IP injection): 38.2 µM | half-life (IP injection): 124 min | Cmax (oral gavage): 26.4 µM | half-life (oral gavage): 66 min | AUC (IP injection): 43400 ng·h/mL | AUC (oral gavage): 20500 ng·h/mL | Oral bioavailability (mice, oral vs IP, 200 mg/kg): significant oral bioavailability
